ChEMBL document CHEMBL1148242, “New benzo[5,6]pyrrolizino[1,2-b]quinolines as cytotoxic agents” (Bioorg Med Chem Lett, 2004)

Legend:
Type in all cases: functional, cell-based
[1] = system: MCF7; test: In vitro cytotoxic activity of compound against human MCF-7 cell line
[2] = system: L1210; test: In vitro cytotoxic activity of compound against mouse leukemia L1210 cell line
[3] = system: PC-3; test: In vitro cytotoxic activity of compound against human PC3 cell line

SMILES | IC50 [1] [µM] | IC50 [2] [µM] | IC50 [3] [µM]
CCc1c2c(nc3ccc(OCCN4CCCCC4)cc13)-c1cc3cc(O)ccc3n1C2 | 6.3 | 0.55 | 4.8
COc1ccc2c(c1)cc1n2Cc2c-1nc1ccc(O)cc1c2C | 12 | 0.6 | > 50
Cc1c2c(nc3ccc(OCCN4CCCCC4)cc13)-c1cc3cc(O)ccc3n1C2 | 0.55 | 0.55 | 4.94
Cc1c2c(nc3ccc(O)cc13)-c1cc3cc(O)ccc3n1C2 | > 50 | 3.4 | > 10
CC[C@@]1(O)C(=O)OCc2c1cc1n(c2=O)Cc2cc3ccccc3nc2-1 [CAMPTOTHECIN] | 0.32 | 0.06 | 0.31
COc1ccc2c(c1)cc1n2Cc2c-1nc1ccc(OCCN3CCCCC3)cc1c2C | 5.3 | 3.93 | 5.5
Cc1c2c(nc3ccc(OCCN4CCCCC4)cc13)-c1cc3cc(OCCN4CCCCC4)ccc3n1C2 | 4.6 | 0.55 | 5.3
